Assay results as given in PubChem BioAssay AID2060897 (Molecular Pharmacology Branch, DTP, NCI, 2025).
pIC50: −log10 of the molar value.

System: 966289-007-R4-J1-PDC complex spheroid viability
Assay: Anticancer human tumor 966289-007-R4-J1-PDC patient-derived pancreatic adenocarcinoma cell line growth inhibition [RAS]
Conditions: for viability, T/C: stronger effect = lower value
Description: RAS pathway inhibitors in Combinations in Complex Spheroids
A high-throughput screen of multi-cell type tumor spheroids was designed to identify active combinations of RAS pathway inhibitors and targeted small molecules. Complex spheroids include a stromal component modeled by human endothelial cells (HUVEC) and fibroblasts modeled by human mesenchymal stem cells (MSCs). The concentration ranges selected for each drug and investigational agent were based upon clinically achievable concentrations if the clinical Cmax of the agent was known.
Compounds. The drugs and investigational agents: abemaciclib (NSC768073), cobimetinib (NSC768068), divarasib (GDC6063, NSC841802), docetaxel (NSC628503), GDC-1971 (RLY-1971, NSC841576), gemcitabine (NSC613327), inavolisib (NSC800729), ipatasertib (NSC767898), KB-0742 (NSC834161), MRTX-1133 (NSC836407), osimertinib (NSC779217), RMC-4630 (NSC839698), RMC-6236 (NSC851965), RMC-6291 (NSC852671), Ro-3306 (NSC812927), sapanisertib (NSC764658), SN-38 (NSC673596), staurosporine (NSC755774), SY5609 (NSC837396), and tovorafenib (DAY101, NSC766906), were obtained from the National Cancer Institute (NCI) Developmental Therapeutics Program Chemical Repository. The FDA-approved anticancer drug set is available from the NCI Developmental Therapeutics Program. […] The stock solutions were prepared in dimethyl sulfoxide (DMSO, Sigma-Aldrich, St. Louis, MO, cat. D2650) at 800-fold the tested concentration and stored at -70 degrees C prior to their use. All drugs and investigational agents were tested over a range starting from a high concentration at or near the clinical Cmax and decreasing in half-log increments. If the clinical Cmax for an agent had not been determined, the highest concentration tested was 10 microM.
Cell Culture. All cells were maintained in an incubator at 37 degrees C and 5% CO2 with 95% humidity. The PDC lines were cultured according to standard operating procedures established by the NCI PDMR. All PDCs were thawed and cultured in Matrigel-coated flasks prepared with a working solution of 1X Ham's F-12 nutrient mix, without supplementation (Invitrogen, Waltham, MA, cat. 11765054), 100 U/mL penicillin-streptomycin (Invitrogen, cat. 15140122), and 2.5% Matrigel (Corning Inc., Corning, NY, cat. 354248) for the first three passages. The 362531-283-R-J2-PDC and 782815-120-R-J1-PDC lines were cultured in 6C/Colon 1B media, which includes advanced DMEM/F-12 (Thermo Fisher Scientific, cat. 12634028), 10 mM HEPES (Thermo Fisher Scientific, cat. 15630080), 1X GlutaMAX supplement (Thermo Fisher Scientific, cat. 35050061), 0.1 mg/mL primocin (InvivoGen, San Diego, CA, cat. ant-pm-2), 10% defined fetal bovine serum, heat inactivated (HyClone Laboratories Inc., Logan, UT, cat. SH30070.03HI), 50% L-WRN conditioned media (ATCC, cat. CRL-3276), 1.25 mM N-Acetyl-L-cysteine (Sigma-Aldrich, cat. A9165), 10 mM nicotinamide (Sigma-Aldrich, cat. N0636), 1X B-27 supplement (Thermo Fisher Scientific, cat. 17504044), 1X N-2 supplement (Thermo Fisher Scientific, cat. 17502048), 50 ng/mL human EGF (Thermo Fisher Scientific, cat. PHG0311), and 10 microM Y-27632 dihydrochloride (Tocris Bioscience, cat. 1254). The K12877-001-R-J1-PDC line was cultured in 6I media, which includes all 6C/Colon 1B media plus 10 ng/mL human FGF-10 (PeproTech, cat. 100-26), 1 ng/mL human FGF-2 (PeproTech, cat. 100-18B), 1 µM prostaglandin E2 (Tocris Bioscience, cat. 2296), […] hydrocortisone (Sigma-Aldrich, cat. H4001), and […] bovine insulin (Sigma-Aldrich, cat. I6634). The K86415-001-R-J1-PDC line was cultured in 6D media, which includes all 6C/Colon 1B media components minus the L-WRN conditioned media. The 485176-168-R4-J1-PDC was cultured in PANC media, which includes all 6C/Colon 1B media plus 100 ng/mL human FGF-10 (PeproTech, cat. 100-26), 500 nM SB-431542 (Selleckchem, cat. S1067), and 10 nM gastrin (Tocris Bioscience, cat. 3006). […]

[1] = curve of first compound, second compound 0.000949 µM
[2] = curve of first compound, second compound 0.003 µM
[3] = curve of first compound, second compound 0.00949 µM
[4] = curve of first compound, second compound 0.03 µM
[5] = curve of first compound, second compound 0.0949 µM
[6] = curve of first compound, second compound 0.3 µM
[7] = second compound 0.000949 µM, first compound 0.0316 µM
[8] = second compound 0.000949 µM, first compound 0.1 µM
[9] = second compound 0.003 µM, first compound 0.0316 µM
[10] = second compound 0.003 µM, first compound 0.1 µM
[11] = second compound 0.00949 µM, first compound 0.0316 µM
[12] = second compound 0.00949 µM, first compound 0.1 µM
[13] = second compound 0.03 µM, first compound 0.0316 µM
[14] = second compound 0.03 µM, first compound 0.1 µM
[15] = second compound 0.0949 µM, first compound 0.0316 µM
[16] = second compound 0.0949 µM, first compound 0.1 µM
[17] = second compound 0.3 µM, first compound 0.0316 µM
[18] = second compound 0.3 µM, first compound 0.1 µM
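Note: spheroids exposed to agents for one week before readout.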
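Throughout, for viability, T/C: percent viability relative to DMSO vehicle control wells as 100%.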

In the case of `NC1c2ccccc2OC12CCN(c1cnc3c(N4CCCc5ncccc54)n[nH]c3n1)CC2` (configuration not stated) + CCn1c(-c2cc(N3CCN(C)CC3)cnc2C(C)OC)c2c3cc(ccc31)-c1csc(n1)CC(NC(=O)C1CC1C)C(=O)N1CCCC(N1)C(=O)OCC(C)(C)C2, the pIC50 [1] was under 5.00, the pIC50 [2] was under 5.00 and the pIC50 [3] was under 5.00. It also gave a pIC50 [4] of under 5.00, a pIC50 [5] of under 5.00 and a pIC50 [6] of under 5.00. For the same molecule, the viability, T/C [7] was 88.7%, the viability, T/C [8] was 84% and the viability, T/C (second compound 0.000949 µM, first compound 0.316 µM) was 117%. For the same molecule, the viability, T/C (second compound 0.000949 µM, first compound 1 µM) was 104%, the viability, T/C (second compound 0.000949 µM, first compound 3.16 µM) was 123% and the viability, T/C (second compound 0.000949 µM, first compound 10 µM) was 85%. For the same molecule, the viability, T/C [9] was 121%, the viability, T/C [10] was 93% and the viability, T/C (second compound 0.003 µM, first compound 0.316 µM) was 88.9%. For the same molecule, the viability, T/C (second compound 0.003 µM, first compound 1 µM) was 95.2%, the viability, T/C (second compound 0.003 µM, first compound 3.16 µM) was 105% and the viability, T/C (second compound 0.003 µM, first compound 10 µM) was 109%. The viability, T/C [11] was 106%, the viability, T/C [12] was 103% and the viability, T/C (second compound 0.00949 µM, first compound 0.316 µM) was 88.5%. The viability, T/C (second compound 0.00949 µM, first compound 1 µM) was 111%, the viability, T/C (second compound 0.00949 µM, first compound 3.16 µM) was 97.1% and the viability, T/C (second compound 0.00949 µM, first compound 10 µM) was 89.9%. For the same molecule, the viability, T/C [13] was 78.9%, the viability, T/C [14] was 88.8% and the viability, T/C (second compound 0.03 µM, first compound 0.316 µM) was 103%. The viability, T/C (second compound 0.03 µM, first compound 1 µM) was 105%, the viability, T/C (second compound 0.03 µM, first compound 3.16 µM) was 119% and the viability, T/C (second compound 0.03 µM, first compound 10 µM) was 69.7%. For the same molecule, the viability, T/C [15] was 103%, the viability, T/C [16] was 122% and the viability, T/C (second compound 0.0949 µM, first compound 0.316 µM) was 105%. For the same molecule, the viability, T/C (second compound 0.0949 µM, first compound 1 µM) was 117%, the viability, T/C (second compound 0.0949 µM, first compound 3.16 µM) was 92.8% and the viability, T/C (second compound 0.0949 µM, first compound 10 µM) was 88.4%. The viability, T/C [17] was 103%, the viability, T/C [18] was 88.1% and the viability, T/C (second compound 0.3 µM, first compound 0.316 µM) was 96.8%. It also gave a viability, T/C (second compound 0.3 µM, first compound 1 µM) of 97.3%, a viability, T/C (second compound 0.3 µM, first compound 3.16 µM) of 91.2% and a viability, T/C (second compound 0.3 µM, first compound 10 µM) of 137%.
`CC(C)n1nc(-c2ccc3oc(N)nc3c2)c2c(N)ncnc21` + CCn1c(-c2cc(N3CCN(C)CC3)cnc2C(C)OC)c2c3cc(ccc31)-c1csc(n1)CC(NC(=O)C1CC1C)C(=O)N1CCCC(N1)C(=O)OCC(C)(C)C2 was tested, and the pIC50 [1] was 7.55, the pIC50 [2] was 7.49 and the pIC50 [3] was 7.51. It also gave a pIC50 [4] of 7.59, a pIC50 [5] of 7.58 and a pIC50 [6] of 7.60. For the same molecule, the viability, T/C (second compound 0.000949 µM, first compound 0.000316 µM) was 89.3%, the viability, T/C (second compound 0.000949 µM, first compound 0.001 µM) was 116% and the viability, T/C (second compound 0.000949 µM, first compound 0.00316 µM) was 133%. The viability, T/C (second compound 0.000949 µM, first compound 0.01 µM) was 78.5%, the viability, T/C [7] was 50.5% and the viability, T/C [8] was 16.2%. The viability, T/C (second compound 0.003 µM, first compound 0.000316 µM) was 83.3%, the viability, T/C (second compound 0.003 µM, first compound 0.001 µM) was 128% and the viability, T/C (second compound 0.003 µM, first compound 0.00316 µM) was 93.6%. The viability, T/C (second compound 0.003 µM, first compound 0.01 µM) was 108%, the viability, T/C [9] was 50.6% and the viability, T/C [10] was 18.5%. It also gave a viability, T/C (second compound 0.00949 µM, first compound 0.000316 µM) of 105%, a viability, T/C (second compound 0.00949 µM, first compound 0.001 µM) of 108% and a viability, T/C (second compound 0.00949 µM, first compound 0.00316 µM) of 107%. The viability, T/C (second compound 0.00949 µM, first compound 0.01 µM) was 108%, the viability, T/C [11] was 48.5% and the viability, T/C [12] was 15.2%. For the same molecule, the viability, T/C (second compound 0.03 µM, first compound 0.000316 µM) was 107%, the viability, T/C (second compound 0.03 µM, first compound 0.001 µM) was 90.8% and the viability, T/C (second compound 0.03 µM, first compound 0.00316 µM) was 108%. It also gave a viability, T/C (second compound 0.03 µM, first compound 0.01 µM) of 106%, a viability, T/C [13] of 38.1% and a viability, T/C [14] of 17.4%. The viability, T/C (second compound 0.0949 µM, first compound 0.000316 µM) was 98%, the viability, T/C (second compound 0.0949 µM, first compound 0.001 µM) was 117% and the viability, T/C (second compound 0.0949 µM, first compound 0.00316 µM) was 106%. For the same molecule, the viability, T/C (second compound 0.0949 µM, first compound 0.01 µM) was 112%, the viability, T/C [15] was 38.4% and the viability, T/C [16] was 14.7%. It also gave a viability, T/C (second compound 0.3 µM, first compound 0.000316 µM) of 91.8%, a viability, T/C (second compound 0.3 µM, first compound 0.001 µM) of 107% and a viability, T/C (second compound 0.3 µM, first compound 0.00316 µM) of 112%. The viability, T/C (second compound 0.3 µM, first compound 0.01 µM) was 87.1%, the viability, T/C [17] was 41.6% and the viability, T/C [18] was 16.6%.
With `C#Cc1c(F)ccc2cc(O)cc(-c3ncc4c(N5CC6CCC(C5)N6)nc(OCC56CCCN5CC(F)C6)nc4c3F)c12` (configuration not stated) the viability, T/C (compound 0.316 µM) was 114% [middle of 8 runs], the viability, T/C (compound 3.16 µM) was 94.4% [middle of 8 runs] and the pIC50 (compound alone, run of 06/10/2024) was under 5.00.
